Reference: ChEMBL document CHEMBL4431321, “Profiling of Flavonol Derivatives for the Development of Antitrypanosomatidic Drugs” (J Med Chem, 2016)
Values belong to the compound of their own block, whether it stands above or below them. Activity calls are given as the source filed them. The rule behind the calls is not given here.

Legend:
[1] = Cytotoxicity against human THP1 cells after 72 hrs by MTT assay; format: cell-based; details: THP-1 cells, read-out: NOAEL
in vitro = details: human, THP-1 cells
Description: Selectivity index, ratio of CC50 for human THP1 cells to EC50 for Trypanosoma brucei brucei Lister 427 bloodstream forms

[2] = system: Trypanosoma brucei brucei; test: Antitrypanosomal activity against Trypanosoma brucei brucei Lister 427 bloodstream forms after 72 hrs by resazurin-based assay; format: functional, organism-based; details: Lister 427, 72 h
Trypanosoma brucei [3] = test: Inhibition of Trypanosoma brucei PTR1 at 50 uM using H2B as substrate incubated for 10 mins followed by addition of NADPH measured for 10 to 50 mins
Leishmania mexicana [4] = test: Inhibition of Leishmania mexicana PTR1 at 50 uM using H2B as substrate incubated for 10 mins followed by addition of NADPH measured for 10 to 50 mins
786-0 = test: Mitochondrial toxicity in human 786-O cells incubated for 6 hrs by mitotracker red staining based-uptake method; format: cell-based; details: 786-0, 6 h
A549 = test: Cytotoxicity against human A549 cells at 100 uM after 48 hrs by cell titer glo assay; format: cell-based; details: a549, 48 h
WI-38 = test: Cytotoxicity against human WI38 cells at 100 uM after 48 hrs by cell titer glo assay; format: cell-based; details: wi-38, 48 h
[5] = system: Trypanosoma brucei brucei; test: Antitrypanosomal activity against Trypanosoma brucei brucei Lister 427 bloodstream forms at 10 uM after 72 hrs by resazurin-based assay; format: functional, organism-based
Cytochrome P450 1A2 = target: T1, Cytochrome P450 1A2 (Homo sapiens, UniProt P05177); test: Inhibition of human microsomal CYP1A2 expressed in baculovirus infected BTI-TN-5B1-4 cells at 10 uM incubated for 30 mins by luciferase assay; format: ADME; details: bti-tn-5b1-4, 0.5 h, 10 µM
T1 sequence (P05177 whole entry): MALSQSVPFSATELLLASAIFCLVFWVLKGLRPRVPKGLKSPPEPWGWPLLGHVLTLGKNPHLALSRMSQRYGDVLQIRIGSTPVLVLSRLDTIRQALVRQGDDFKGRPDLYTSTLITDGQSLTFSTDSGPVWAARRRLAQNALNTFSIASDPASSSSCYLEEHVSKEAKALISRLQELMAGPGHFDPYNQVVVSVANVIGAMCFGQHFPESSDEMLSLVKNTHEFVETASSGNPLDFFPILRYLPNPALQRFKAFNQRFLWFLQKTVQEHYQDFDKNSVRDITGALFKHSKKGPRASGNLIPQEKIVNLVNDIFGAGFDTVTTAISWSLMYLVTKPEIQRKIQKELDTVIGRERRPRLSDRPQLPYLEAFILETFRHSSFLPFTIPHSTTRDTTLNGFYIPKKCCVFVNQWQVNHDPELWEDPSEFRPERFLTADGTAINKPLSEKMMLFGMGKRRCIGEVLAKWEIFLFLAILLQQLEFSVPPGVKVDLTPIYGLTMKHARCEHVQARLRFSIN

Leishmania mexicana [6] = test: Inhibition of Leishmania mexicana DHFR at 50 uM using folic aid as substrate by spectrophotometric analysis
Trypanosoma brucei [7] = test: Inhibition of Trypanosoma brucei DHFR at 50 uM using folic aid as substrate by spectrophotometric analysis
[8] = target: T2, Dihydrofolate reductase (Homo sapiens) (UniProt P00374); test: Inhibition of human DHFR at 50 uM using folic aid as substrate by spectrophotometric analysis
T2 sequence (whole entry): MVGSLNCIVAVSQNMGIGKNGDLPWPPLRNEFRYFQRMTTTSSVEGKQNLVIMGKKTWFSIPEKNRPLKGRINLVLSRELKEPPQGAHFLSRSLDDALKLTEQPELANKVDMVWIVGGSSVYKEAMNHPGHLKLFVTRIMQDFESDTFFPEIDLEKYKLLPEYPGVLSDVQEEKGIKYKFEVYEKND

[9] = target: Thymidylate synthase (Homo sapiens) (UniProt P04818); test: Inhibition of human thymidylate synthase at 50 uM using folic aid as substrate by spectrophotometric analysis
Sequence of Thymidylate synthase (Homo sapiens) (P04818 2-313 limits assumed): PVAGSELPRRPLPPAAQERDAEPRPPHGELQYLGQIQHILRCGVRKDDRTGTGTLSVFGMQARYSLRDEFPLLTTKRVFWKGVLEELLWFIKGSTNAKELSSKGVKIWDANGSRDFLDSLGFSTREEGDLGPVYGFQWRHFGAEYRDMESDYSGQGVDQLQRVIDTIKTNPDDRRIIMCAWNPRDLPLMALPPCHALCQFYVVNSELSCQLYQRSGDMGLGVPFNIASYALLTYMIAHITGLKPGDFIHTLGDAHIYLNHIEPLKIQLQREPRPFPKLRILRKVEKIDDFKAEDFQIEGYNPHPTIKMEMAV

[10] = Inhibition of Trypanosoma brucei PTR1 using H2B as substrate incubated for 10 mins followed by addition of NADPH measured for 10 to 50 mins

SMILES: N=C(N)c1ccc(OCCCCCOc2ccc(C(=N)N)cc2)cc1 [PENTAMIDINE]
MNTC at 72 h [1]: 10 µM | selectivity ratio (in vitro): 6440

SMILES: COc1cccc(-c2oc3ccccc3c(=O)c2O)c1
inhibition (Trypanosoma brucei [3]): inactive | inhibition (Leishmania mexicana [4]): inactive | Activity (786-0): Non-Toxic | Activity (A549): Non-Toxic | Activity (WI-38): Non-Toxic | Activity [5]: Active | MNTC at 72 h [1]: 10 µM | inhibition (INH) (Cytochrome P450 1A2): Not Active | selectivity ratio (in vitro): 4

SMILES: O=c1cc(-c2ccccc2)oc2ccccc12 [FLAVONE]
IC50 [2]: < 30 µM

SMILES: CC1(C(=O)O)CCC2(C)CCC3(C)C(=CC(=O)C4C5(C)CCC(OC6OC(C(=O)O)C(O)C(O)C6OC6OC(C(=O)O)C(O)C(O)C6O)C(C)(C)C5CCC43C)C2C1 (stereo unspecified)
IC50 [2]: < 30 µM

SMILES: COc1ccc2c(=O)c(O)c(-c3ccc(OC)c(OC)c3)oc2c1
Activity (786-0): Non-Toxic | Activity (A549): Non-Toxic | Activity (WI-38): Non-Toxic | Activity [5]: Active | MNTC at 72 h [1]: 25 µM | inhibition (INH) (Cytochrome P450 1A2): Not Active | selectivity ratio (in vitro): 8

SMILES: Cc1cc(O)c2c(c1)C(=O)c1cc(O)cc(O)c1C2=O [EMODIN]
IC50 [2]: < 30 µM

SMILES: COc1ccc(-c2oc3cc(OC)ccc3c(=O)c2O)cc1
Activity (786-0): Non-Toxic | Activity (A549): Non-Toxic | Activity (WI-38): Non-Toxic | Activity [5]: Active | MNTC at 72 h [1]: 10 µM | inhibition (INH) (Cytochrome P450 1A2): Not Active | selectivity ratio (in vitro): 9

SMILES: O=c1c(O)c(-c2ccc(O)c(O)c2)oc2ccc(O)cc12
EC50 [2]: 1.36 µM | inhibition (Leishmania mexicana [6]): < 25% | inhibition (Trypanosoma brucei [7]): < 25% | inhibition [8]: < 30% | inhibition [9]: inactive | Activity (786-0): Non-Toxic | Activity (A549): Non-Toxic | Activity (WI-38): Non-Toxic | Activity [5]: Active | MNTC at 72 h [1]: 10 µM | inhibition (INH) (Cytochrome P450 1A2): Not Active | selectivity ratio (in vitro): 6

SMILES: COc1cc(-c2cc(=O)c3c(O)cc(O)cc3o2)ccc1O [CHRYSOERIOL]
IC50 [2]: < 30 µM

SMILES: O=c1cc(-c2ccc(O)c(O)c2)oc2cc(O[C@@H]3O[C@@H](CO)[C@H](O)[C@@H](O)[C@@H]3O)cc(O)c12
IC50 [2]: < 30 µM

SMILES: COc1cc(-c2oc3cc(O)cc(O)c3c(=O)c2O)ccc1O [ISORHAMNETIN]
IC50 [10]: 13.9 µM | IC50 [2]: 11.2 µM

SMILES: O=C1CC(c2ccc(O)cc2)Oc2cc(O)cc(O)c21 (stereo unspecified)
IC50 [2]: < 30 µM

SMILES: COc1cc(OC)c2c(=O)cc(-c3ccccc3)oc2c1 [CHRYSIN DIMETHYL ETHER]
IC50 [2]: < 30 µM

The next lines start with results.

IC50 [2]: < 30 µM
SMILES: O=C(/C=C/c1ccc(O)c(O)c1)O[C@@H]1C[C@](O)(C(=O)O)C[C@@H](O)[C@H]1O [CHLOROGENIC ACID]

IC50 [2]: < 30 µM
SMILES: COc1ccc([C@H]2CC(=O)c3c(O)cc(O[C@@H]4O[C@H](CO[C@@H]5O[C@@H](C)[C@H](O)[C@@H](O)[C@H]5O)[C@@H](O)[C@H](O)[C@H]4O)cc3O2)cc1O

IC50 [2]: < 30 µM
SMILES: O=C(O)/C=C/c1ccc(O)cc1 [COUMARIC ACID]

IC50 [2]: < 30 µM
SMILES: O=C(O)/C=C/c1ccc(O)c(O)c1 [CAFFEIC ACID]

IC50 [2]: < 30 µM
SMILES: O=c1cc(-c2ccccc2)oc2cccc(O)c12 [5-HYDROXYFLAVONE]

IC50 [2]: < 30 µM
SMILES: O=C(O)/C=C/c1ccccc1O [O-COUMARIC ACID]

IC50 [2]: < 30 µM
SMILES: O=c1cc(-c2ccccc2)oc2cc(O)cc(O)c12 [CHRYSIN]

IC50 [2]: < 30 µM
SMILES: O=c1oc2c(O)c(O)cc3c(=O)oc4c(O)c(O)cc1c4c23

IC50 [2]: 9 µM
SMILES: O=c1c(O)c(-c2ccc(O)cc2)oc2cc(O)cc(O)c12 [KAEMPFEROL]
IC50 [10]: 28 µM
